Reference: US20210154281A1, “CELL-BASED CANCER VACCINES AND CANCER THERAPIES” (Massachusetts Institute of Technology, priority 2019, published 2021)
Read-outs that look alike come from different tables or passages of the source.

Assays:
[1] = test system: B16-Ova cells; test: In vitro cross presentation assay: drug-treated B16-Ova cells, BMDC and OT-1 CD8+ T-cells, IFN-γ+ T-cells by flow cytometry; format: cell-based, mouse; parameters: reduction of the percentage of IFNg+ T-cells by siRNA knockdown of calreticulin / reduction of T-cell IFN-γ responses / frequency of IFN-γ+ T-cells: concentration or dose not given beside the values; conditions: for inducing the appearance of IFNγ+OT-1 CD8+ T-cells: 50 μM etoposide or 10 μM mitoxantrone; for reduction of the percentage of IFNg+ T-cells by siRNA knockdown of calreticulin: compared to siRNA controls
Procedure: (§1) B16-Ova or MC-38 Ova cells were treated with various doses of chemotherapeutic drugs for 24 h followed by extensive washing in IMDM (10% FBS, P/S). Subsequently 1×10^6 treated cells were co-cultured with 2.5×10^5 BMDC per well of a 24-well plate for each condition tested. After 24 hours of co-culture, supernatants were removed from each well and the BMDC washed 2-3 times in T-cell media (RPMI containing 10% FBS, 20 mM HEPES, 1 mM sodium pyruvate, 55 uM b-mercaptoethanol, 2 mM L-glutamine, nonessential amino acids and antibiotics). CD8+OT-I T-cells isolated from spleens of OT-I mice were then co-cultured with the BMDC at 125,000 T-cells per well to achieve an effector to target ratio of 0.5. Where indicated, BMDC and/or T-cells were also exposed to chemotherapy drugs. After a 12-15 h incubation, IFN-g producing T-cells were identified and quantified by intra-cellular cytokine staining and flow cytometry using a BD LSR II or Fortessa flow cytometer. Cells were first gated for CD3 expression, then re-gated for CD8 and IFNg expression.
An experimental system was developed to assess dendritic cell-mediated T-cell priming using the B16-Ova cells, in combination with primary bone-marrow derived dendritic cells (BMDC) and OT-I CD8+ T-cells expressing a TCR transgene that specifically recognizes the Ova-derived peptide […] (SEQ ID NO:1) in the context of H2-Kb (OT-1) (Clarke, et al., Immunol Cell Biol., 78(2):110-7 (2000); Hogquist, et al., Cell, 76(1):17-27 (1994)). […] The treated B16-Ova cells/BMDC co-culture was then incubated with purified CD8+ T-cells obtained from the spleens of OT-1 mice, and the appearance of IFNg+CD8 T-cells was measured 12-15 hours later by intracellular staining and subsequent quantification using flow cytometry.

[2] = test system: B16F10 melanoma tumor cell line; test: Cell death by AnnexinV/DAPI staining 48 hours after drug treatment; format: cell-based, mouse; conditions: 48 hours; for cell death by DAPI and Annexin V staining: at the concentrations used; for cytotoxicity at 10 µM / viability at 10 µM / cytotoxicity at 50 µM / viability at 50 µM: Mus musculus, B16-F10; for viability at 10 µM / viability at 50 µM: read-out: AnnV−DAPI− (%) Mean
Procedure: For assessment of cell death, floating and attached cells were harvested after 48 hours of treatment with the indicated chemotherapeutic drugs. Attached cells were detached using 5 mM EDTA in PBS. The recovered cells were centrifuged at 250×g for 5 minutes, washed once in PBS containing 0.9 mM Ca2+ and 0.5 mM Mg2+ and then stained with AnnV-FITC for 15 minutes in Annexin binding buffer at room temperature according to the manufacturer's protocol (Biolegend). Cells were co-stained with DAPI at a final concentration of 1 μg/ml for 2 minutes in Annexin binding buffer, brought to a final volume of 500 ul using PBS containing 0.9 mM Ca2^+ and 0.5 mM Mg2^+ and analyzed by flow cytometry.
To identify how DNA-damaging chemotherapy could be optimally used to enhance anti-tumor immune function, cytotoxicity assays were performed using the B16F10 melanoma tumor cell line expressing ovalbumin (B16-Ova). Cells were treated with clinically used chemotherapeutic agents followed by assaying for cell death by DAPI and Annexin V staining 48 hours later.

[3] = Cell viability (survival) assay with CellTiter-Glo, 48 hours; format: cell-based, mouse; conditions: mouse, B16F10 melanoma tumor cells, 48 hours, normalized to DMSO-treated control cells
Procedure: For assays of survival, 15,000 cells were plated per well in a 96-well plate in 100 μl media with 5 replicates per condition. Wells along the four edges of the plate were not used. Following cell attachment, the indicated drugs were added in an equal volume of media, and incubated for an additional 48 hours. The media was then removed and replaced with 100 ul of fresh media at room temperature. Following a 30 minute incubation at room temperature, 50 μl of CellTiter-Glo reagent was added, followed by 2 minutes of gentle mixing. The plate was incubated at room temperature for an additional 10 minutes. 100 μl of supernatant was transferred to a 96-well white opaque plate and luminescence was read on a Tecan microplate reader. Values were normalized to those of DMSO-treated control cells.

[4] = test system: CT26 mouse colon cancer cells; conditions: previously reported; cited from earlier work
[5] = test system: p38MAPK; test: Western blotting of cell lysates with anti-phospho-p38 antibody; format: cell-based, mouse; conditions: B16-Ova cells
[6] = test system: B16-Ova cells; test: HMGB1 in cell culture media by ELISA; format: cell-based, mouse; conditions: for HMGB1 (ng/ml) MEAN: culture media 24-48 hours after treatment
Procedure: Cell-free cell culture media was then analyzed by ELISA for HMGB1 according to the manufacturer's protocol.

[7] = test system: B16-Ova cells; test: Proportion of live and dead cells (AnnV/DAPI) after 24 h treatment with increasing doses; format: cell-based, mouse
Procedure: B16-Ova cells or MC-38-Ova cells were treated with various doses of chemotherapy as indicated in FIGS. 1F-1I for 24 hours after which the floating fraction of cells was transferred to a separate tube and washed with PBS (for AnnV/DAPI staining) or IMDM (for co-culture with BMDC). The attached fraction was rinsed 1× with PBS, detached using 5 mM EDTA (in PBS), washed with PBS or IMDM and transferred to a separate tube. Separately, cells treated with chemotherapy for 24 h were re-plated at 1 million cells per well of a 24-well plate in 500 ul of IMDM (10% FBS; P/S). Cell-free supernatants were collected after a further 24 h. […] Lysate of the total chemotherapy-treated cell mixture was generated by three rounds of freeze-thawing by alternate incubations in liquid nitrogen and a 37 C water bath.

[8] = test system: RIPK1; test: Western blotting with anti phosphoRIPK1(S166) antibody; format: cell-based, mouse; conditions: B16-Ova cells
[9] = test system: MC-38-Ova cells; test: In vitro cross presentation assay: drug-treated MC-38-Ova cells, BMDC and OT-1 CD8+ T-cells; format: cell-based, mouse
Procedure: as §1

[10] = B16-Ova cells treated with 10 uM for 24 h
[11] = B16-Ova cells treated with 50 uM for 24 h
[12] = MC-38-Ova cells treated with 10 uM for 24 h
[13] = MC-38-Ova cells treated with 50 uM for 24 h

SMILES	inducing the appearance of IFNγ+OT-1 CD8+ T-cells [1]	% CD3+CD8+IFN-γ+ T-cells MEAN [1, 10] [%]	% CD3+CD8+IFN-γ+ T-cells MEAN [1, 11] [%]	reduction of the percentage of IFNg+ T-cells by siRNA knockdown of calreticulin [1] [%]	cell death by DAPI and Annexin V staining [2]	cytotoxicity at 10 µM ([2]; read-out: AnnV+DAPI+ (%) Mean) [%]	cytotoxicity at 10 µM ([2]; read-out: AnnV+DAPI− (%) Mean) [%]	cytotoxicity at 10 µM ([2]; read-out: AnnV−DAPI+ (%) Mean) [%]	viability at 10 µM [2] [%]	cytotoxicity at 50 µM ([2]; read-out: AnnV+DAPI+ (%) Mean) [%]	cytotoxicity at 50 µM ([2]; read-out: AnnV+DAPI− (%) Mean) [%]	cytotoxicity at 50 µM ([2]; read-out: AnnV−DAPI+ (%) Mean) [%]	viability at 50 µM [2] [%]	viability at 48 h, 10 µM [3] [%]	viability at 48 h, 50 µM [3] [%]	immunogenic cell death / calreticulin exposure [4]	p38MAPK activation [5]	HMGB1 (ng/ml) MEAN ([6]; 10 uM) [ng/mL]	HMGB1 (ng/ml) MEAN ([6]; 50 uM) [ng/mL]	RIPK1 activation [8]	other results
COc1cc([C@@H]2c3cc4c(cc3[C@@H](O[C@@H]3O[C@@H]5CO[C@@H](C)O[C@H]5[C@H](O)[C@H]3O)[C@H]3COC(=O)[C@H]23)OCO4)cc(OC)c1O [Etop, etoposide]	highly effective	0.86	4.80	~50	caused varying extents of apoptotic and non-apoptotic cell death	51	11.6	6.54	30.9	47.9	10.9	4.57	36.6	34.9	36.1	ineffective at inducing ER stress and calreticulin exposure	p38MAPK activation	29.24	10.65	induce RIPK1 activation	% CD3+CD8+IFN-γ+ T-cells MEAN ([1]; Table 7 experiment, 50 uM alone): 4.11%; % CD3+CD8+IFN-γ+ T-cells MEAN ([1]; Table 10 experiment, Etop 50 uM alone): 22.90%; appearance of IFN-γ+ CD8+ T-cells ([1]; co-exposure of both BMDCs and tumor cells, compared to exposure of B16-Ova cells alone): significantly reduced the appearance of IFN-γ+ CD8+ T-cells; magnitude of IFN-γ responses in T-cells ([1]; increasing doses from 0 to 100 uM): corresponding increase in the magnitude of IFN-γ responses; % CD3+CD8+IFN-γ+ T-cells MEAN ([1]; siCalR (calreticulin knockdown) B16-Ova cells, 50 uM): 2.71%; % CD3+CD8+IFN-γ+ T-cells MEAN ([1]; siCtrl (control siRNA) B16-Ova cells, 50 uM): 5.25%; tumor-directed T-cells relative to the level when exposure is limited to the tumor cells alone ([1]; triple co-exposure of tumor cells, BMDCs and T-cells): less than 10%; HMGB1 release into the media ([6]; 24-48 hours post-treatment window): lowest levels of HMGB1 release; proportion of dead cells (AnnV or DAPI single or double positive) ([7]; 25 uM): ~30%; further increase of the proportion of dead cells ([7]; 100 uM): ~5%; proportion of dead cells (AnnV or DAPI single or double positive) ([7]; between 25 and 75 uM): ~30%; % CD3+CD8+IFN-γ+ T-cells MEAN [9, 12]: 13.13%; % CD3+CD8+IFN-γ+ T-cells MEAN [9, 13]: 3.83%; inducing the appearance of IFNγ+OT-1 CD8+ T-cells ([9]; MC-38-Ova, etoposide 10 μM): the most effective treatment
O=C1c2c(O)ccc(O)c2C(=O)c2c(NCCNCCO)ccc(NCCNCCO)c21 [Mito, mitoxantrone]	highly effective	5.57	0.44	~80	caused varying extents of apoptotic and non-apoptotic cell death	52.4	17.1	9.44	21.1	73.8	11.7	8.5	6.08	0.0743	0.000452	promote strong immunogenic cell death	p38MAPK activation	70.09	14.63	induce RIPK1 activation	IFN-γ responses in T-cells ([1]; 5 uM): maximum IFN-γ responses; IFN-γ responses in T-cells ([1]; 10 uM): lower IFN-γ response; IFN-γ responses in T-cells ([1]; 25 uM and higher doses): undetectable; % CD3+CD8+IFN-γ+ T-cells MEAN ([1]; Table 7 experiment, 10 uM alone): 3.98%; % CD3+CD8+IFN-γ+ T-cells MEAN ([1]; siCalR (calreticulin knockdown) B16-Ova cells, 10 uM): 1.10%; % CD3+CD8+IFN-γ+ T-cells MEAN ([1]; siCtrl (control siRNA) B16-Ova cells, 10 uM): 4.63%; dead cell proportion ([7]; 25 uM and higher doses): greater than 90%; dead cell proportion ([7]; between 5 and 10 uM): ~50%; % CD3+CD8+IFN-γ+ T-cells MEAN [9, 12]: 3.433%; % CD3+CD8+IFN-γ+ T-cells MEAN [9, 13]: 0.148%
